This passage reports IC50 results from patent US20250282768A1 (Janssen Pharmaceutica NV, priority 2022, published 2025).

Where only a bound is given, the exact number is not on record here.

This experiment deals with p-IKKa levels in L363 (NIK translocated multiple myeloma) cells. Nature of the experiment: Assay 2: Effect of compounds on p-IKKa levels in L363 (NIK translocated multiple myeloma) cells. Type of experiment: cell-based. Particulars: Homo sapiens, L-363, 6 h, read-out: Assay 2 IC50 (nM), p-IKKa (Ser 176/180) in BAFF stimulated L363 cells with MG132, 6 h; average if tested more than once. As to the method:
Assay 2: Effect of Compounds on p-IKKa Levels in L363 (NIK Translocated Multiple Myeloma) Cells
All compounds tested were dissolved and serially diluted in DMSO, 1:3 dilution for 11 points in an Echo compatible plate. 100% DMSO was added to columns 12 and 24 of the plate to serve as high and low signal controls. This compound plate was used to spot 20 nL of compound or DMSO into a Greiner 384 well TC plate (781080). The final DMSO concentration was 0.3% (v/v) in cell assays. Human L363 cells (ATCC) were cultured in RPM11640 medium supplemented with GlutaMax, non-essential amino acids, sodium pyruvate and 10% fetal bovine serum. Cells were routinely maintained at densities of 0.2×10^6 cells per ml—2×10^6 cells per mL at 37° C. in a humidified 5% CO2 atmosphere incubator. Cells were passaged twice a week splitting back to obtain the low density. The day before the assay, cells were washed twice in HBSS (Hank's Balanced Salt Solution), resuspended in Dulbecco's Modified Eagle Medium (DMEM)+0.5% IgG and protease free BSA (Jackson Immuno Research Laboratories), +/−250 ng/ml recombinant human B-cell activating factor (BAFF/BLyS/TNFSF13B) and incubated overnight at 37° C. in a humidified 5% CO2 atmosphere (bulk stimulation with or without BAFF). The next day, the cell concentration was adjusted to 1×10^7 cells/ml in DMEM+/−250 ng/ml BAFF +/−10 μM MG132 and plated at 10 μl/well into compound or DMSO spotted 384 well TC plates. Seeded cells were incubated at 37° C. in a humidified 5% CO2 atmosphere for 6 h. After 6 h, the plates were removed from the incubator and cell lysis was achieved by the addition of 2.5 μl 5×lysis buffer containing protease and phosphatase inhibitors, followed by shaking on a plate shaker at room temperature for 15 min. At the end of this incubation, lysed cells were sequentially treated and incubated with acceptor and donor bead mixes according to the manufacturer's protocol for a 1 plate/2-incubation suspension cell assay (AlphaLISA SureFire Ultra p-IKKa (Ser 176/180) Assay Kit (Perkin Elmer). Plates were read using an EnVision Multilabel Plate Reader (Perkin Elmer). Within an experiment, a concentration response curve for each compound was run in duplicate. The signal obtained in the test wells was normalized using high signal (BAFF stimulated cells, DMSO, MG132) and low signal (unstimulated cells, DMSO) controls. To determine the IC50, a sigmoidal curve was fitted to the plot of % inhibition versus Log10 compound concentration.
Consider `CN1CC[C@@](O)(c2cc(-c3cccc(-c4ccnc(NC(c5cnn(C)c5)C(F)(F)F)n4)n3)no2)C1=O` (mixture of isomers) [Example 96, (R)-3-Hydroxy-1-methyl-3-(3-(6-(2-(((RS)-2,2,2-trifluoro-1-(1-methyl-1H-pyrazol-4-yl)ethyl)amino)pyrimidin-4-yl)pyridin-2-yl)isoxazol-5-yl)pyrrolidin-2-one], for which the IC50 was in the range of 50 to 500 nM.

Take `CN1CC[C@@](O)(c2cc(-c3cccc(-c4ccnc(NC5CCN(C6CC6)C5)n4)n3)no2)C1=O` (mixture of isomers) [Example 448, (3R)-3-(3-(6-(2-((1-Cyclopropylpyrrolidin-3-yl)amino)pyrimidin-4-yl)pyridin-2-yl)isoxazol-5-yl)-3-hydroxy-1-methylpyrrolidin-2-one]: the IC50 was above 500 nM. Consider `CN1CC[C@@](O)(c2cc(-c3cccc(-c4ccnc(NC5CCSC5)n4)n3)no2)C1=O` (mixture of isomers) [Example 456, (3R)-3-Hydroxy-1-methyl-3-(3-(6-(2-((tetrahydrothiophen-3-yl)amino)pyrimidin-4-yl)pyridin-2-yl)isoxazol-5-yl)pyrrolidin-2-one], for which the IC50 lay in the range of 50 to 500 nM. `CN1CC[C@@](O)(c2cc(-c3cccc(-c4ccnc(NC5COCC(F)(F)C5)n4)n3)no2)C1=O` (mixture of isomers) [Example 459, (3R)-3-(3-(6-(2-((5,5-Difluorotetrahydro-2H-pyran-3-yl)amino)pyrimidin-4-yl)pyridin-2-yl)isoxazol-5-yl)-3-hydroxy-1-methylpyrrolidin-2-one]: the IC50 lay in the range of 50 to 500 nM. In the case of `COC(CNc1nccc(-c2cccc(-c3cc([C@]4(O)CCN(C)C4=O)on3)n2)n1)C(F)(F)F` (mixture of isomers) [Example 461, (3R)-3-Hydroxy-1-methyl-3-(3-(6-(2-((3,3,3-trifluoro-2-methoxypropyl)amino)pyrimidin-4-yl)pyridin-2-yl)isoxazol-5-yl)pyrrolidin-2-one], the IC50 lay within 50 to 500 nM. In the case of `CN1CC[C@@](O)(c2cc(-c3cccc(-c4ccnc(NC5COCC5(F)F)n4)n3)no2)C1=O` (mixture of isomers) [Example 465, (3R)-3-(3-(6-(2-((4,4-Difluorotetrahydrofuran-3-yl)amino)pyrimidin-4-yl)pyridin-2-yl)isoxazol-5-yl)-3-hydroxy-1-methylpyrrolidin-2-one] it was 50 to 500 nM; in that of `CN1CC[C@@](O)(c2cc(-c3cccc(-c4ccnc(NC5CCOc6ncccc65)n4)n3)no2)C1=O` (mixture of isomers) [Example 472, (3R)-3-(3-(6-(2-((3,4-Dihydro-2H-pyrano[2,3-b]pyridin-4-yl)amino)pyrimidin-4-yl)pyridin-2-yl)isoxazol-5-yl)-3-hydroxy-1-methylpyrrolidin-2-one], 50 to 500 nM; in that of `CC1CCCCC1Nc1nccc(-c2cccc(-c3cc([C@]4(O)CCN(C)C4=O)on3)n2)n1` (mixture of isomers) [Example 341, (3R)-3-Hydroxy-1-methyl-3-(3-(6-(2-(((rac)-2-methylcyclohexyl)amino)pyrimidin-4-yl)pyridin-2-yl)isoxazol-5-yl)pyrrolidin-2-one], 50 to 500 nM. Turning to `CC1CC(Nc2nccc(-c3cccc(-c4cc([C@]5(O)CCN(C)C5=O)on4)n3)n2)CO1` (mixture of isomers) [Example 343, (R)-3-Hydroxy-1-methyl-3-(3-(6-(2-(((rac)-5-methyltetrahydrofuran-3-yl)amino)pyrimidin-4-yl)pyridin-2-yl)isoxazol-5-yl)pyrrolidin-2-one], the IC50 lay in the range of 50 to 500 nM. In the case of `C[C@@H](Nc1nccc(-c2cccc(-c3cc([C@]4(O)CCN(C)C4=O)on3)n2)n1)c1ccnn1C` (single isomer, unassigned) [Example 67], the IC50 is 50 to 500 nM. With `C[C@H](Nc1nccc(-c2cccc(-c3cc([C@]4(O)CCN(C)C4=O)on3)n2)n1)c1ccnn1C` (single isomer, unassigned) [Example 68] the figure was 50 to 500 nM; with `C[C@@H](Nc1nccc(-c2cccc(-c3cc([C@]4(O)CCN(C)C4=O)on3)n2)n1)c1cnn(C)c1` (single isomer, unassigned) [Example 69], below 50 nM; with `C[C@H](Nc1nccc(-c2cccc(-c3cc([C@]4(O)CCN(C)C4=O)on3)n2)n1)c1cnn(C)c1` (single isomer, unassigned) [Example 70], above 500 nM. `CN1CC[C@@](O)(c2cnn(-c3cccc(-c4ccnc(Nc5cnn(C)c5)n4)n3)c2)C1=O` (single isomer, unassigned) [Example 76]: the IC50 is above 500 nM. `CN1CC[C@](O)(c2cnn(-c3cccc(-c4ccnc(Nc5cnn(C)c5)n4)n3)c2)C1=O` (single isomer, unassigned) [Example 77]: the IC50 lay within 50 to 500 nM. For `CN1CC[C@@](O)(c2cnc(-c3cccc(-c4ccnc(Nc5ccn(C)n5)n4)n3)s2)C1=O` (single isomer, unassigned) [Example 78], the IC50 was above 500 nM. For `CN1CC[C@](O)(c2cnc(-c3cccc(-c4ccnc(Nc5ccn(C)n5)n4)n3)s2)C1=O` (single isomer, unassigned) [Example 79], the IC50 was above 500 nM. For `CN1CC[C@](O)(c2csc(-c3cccc(-c4ccnc(Nc5ccn(C)n5)n4)n3)n2)C1=O` (single isomer, unassigned) [Example 80], the IC50 is above 500 nM.

For `CN1CC[C@@](O)(c2csc(-c3cccc(-c4ccnc(Nc5ccn(C)n5)n4)n3)n2)C1=O` (single isomer, unassigned) [Example 81], the IC50 is above 500 nM.

For `CN1CC[C@@](O)(c2ncc(-c3cccc(-c4ccnc(Nc5ccn(C)n5)n4)n3)s2)C1=O` (single isomer, unassigned) [Example 82], the IC50 is above 500 nM. On to `CN1CC[C@](O)(c2ncc(-c3cccc(-c4ccnc(Nc5ccn(C)n5)n4)n3)s2)C1=O` (single isomer, unassigned) [Example 83], for which the IC50 was 50 to 500 nM.

For the compound `CN1CC[C@](O)(c2cc(-c3cccc(-c4ccnc(Nc5ccn(C)n5)n4)n3)[nH]n2)C1=O` (single isomer, unassigned) [Example 84], the IC50 is above 500 nM. Turning to `CN1CC[C@@](O)(c2cc(-c3cccc(-c4ccnc(Nc5ccn(C)n5)n4)n3)[nH]n2)C1=O` (single isomer, unassigned) [Example 85], the IC50 lay within 50 to 500 nM. For the compound `CN1CC[C@](O)(c2cn(-c3cccc(-c4ccnc(Nc5ccn(C)n5)n4)n3)cn2)C1=O` (single isomer, unassigned) [Example 87], the IC50 is above 500 nM. In the case of `CN1CC[C@@](O)(c2cc(-c3cccc(-c4ccnc(Nc5cnn(C)c5Cl)n4)n3)n[nH]2)C1=O` (single isomer, unassigned) [Example 104] it was above 500 nM; in that of `CN1CC[C@](O)(c2cc(-c3cccc(-c4ccnc(Nc5cnn(C)c5Cl)n4)n3)n[nH]2)C1=O` (single isomer, unassigned) [Example 105], 50 to 500 nM; in that of `CN1CC[C@](O)(c2nccn2-c2cccc(-c3ccnc(Nc4cnn(C)c4Cl)n3)n2)C1=O` (single isomer, unassigned) [Example 106, (*S)-3-(1-(6-(2-((5-Chloro-1-methyl-1H-pyrazol-4-yl)amino)pyrimidin-4-yl)pyridin-2-yl)-1H-imidazol-2-yl)-3-hydroxy-1-methylpyrrolidin-2-one], above 500 nM. In the case of `CN1CC[C@@](O)(c2cn(-c3cccc(-c4ccnc(Nc5cnn(C)c5Cl)n4)n3)cn2)C1=O` (single isomer, unassigned) [Example 107] it was above 500 nM; in that of `CN1CC[C@](O)(c2cn(-c3cccc(-c4ccnc(Nc5cnn(C)c5Cl)n4)n3)cn2)C1=O` (single isomer, unassigned) [Example 108], 50 to 500 nM; in that of `C[C@@H]1Cn2nc(Nc3nccc(-c4cccc(-c5cc([C@]6(O)CCN(C)C6=O)on5)n4)n3)cc2CO1` (single isomer, unassigned) [Example 114, (R)-3-Hydroxy-1-methyl-3-(3-(6-(2-(((*R)-6-methyl-6,7-dihydro-4H-pyrazolo[5,1-c][1,4]oxazin-2-yl)amino)pyrimidin-4-yl)pyridin-2-yl)isoxazol-5-yl)pyrrolidin-2-one], below 50 nM.
